In brackets after ≈: the same amount, converted by molar mass. Read-outs that look alike come from different tables or passages of the source.
Assays:
[1] = system: M. Smegmatis ATCC607; assay: In-vitro anti-bacterial activity against strain M. smegmatis ATCC607; assay type: cell-based; settings: for IC90: Mycolicibacterium smegmatis
Method: Flat-bottom, sterile 96-well plastic microtiter plates were filled with 180 μl of sterile deionized water, supplemented with 0.25% BSA. Subsequently, stock solutions (7.8× final test concentration) of compounds were added in 45 μl volumes to a series of duplicate wells in column 2 so as to allow evaluation of their effects on bacterial growth. Serial five-fold dilutions (45 μl in 180 μl) were made directly in the microtiter plates from column 2 to 11 using a customised robot system (Zymark Corp., Hopkinton, Mass.). Pipette tips were changed after every 3 dilutions to minimize pipetting errors with high hydrophobic compounds. Untreated control samples with (column 1) and without (column 12) inoculum were included in each microtiter plate. Approximately 250 CFU per well of bacteria inoculum, in a volume of 100 μl in 2.8× Mueller-Hinton broth medium, was added to the rows A to H, except column 12. The same volume of broth medium without inoculum was added to column 12 in row A to H. The cultures were incubated at 37° C. for 48 hours in a humidified 5% CO2 atmosphere (incubator with open air valve and continuous ventilation). At the end of incubation, two days after inoculation, the bacterial growth was quantitated fluorometrically. Therefore Alamar Blue (10×) was added to all wells in a volume of 20 μl and plates were incubated for another 2 hours at […]
The fluorescence was read in a computer-controlled fluorometer (Cytofluor, Biosearch) at an excitation wavelength of 530 nm and an emission wavelength of 590 nm (gain 30).

[2] = system: Staphylococcus aureus (ATCC29213); assay: Microtitre plate assay, IC90 determination, STA 29213; assay type: cell-based; settings: Staphylococcus aureus ATCC29213, 90% inhibitory concentration for bacterial growth, resazurin; for IC90: read-out: IC90 (μg/ml) STA 29213
Method: (§1) The bacteria used in this study were grown overnight in flasks containing 100 ml Mueller-Hinton Broth (Becton Dickinson—cat. no. 275730) in sterile de-ionized water, with shaking, at 37° C. Stocks (0.5 ml/tube) were stored at −70° C. until use. Bacteria titrations were performed in microtiter plates to detect the TCID50, in which the TCID50 represents the dilution that gives rise to bacterial growth in 50% of inoculated cultures.
(§2) In general, an inoculum level of approximately 100 TCID50 was used for susceptibility testing.
(§3) Flat-bottom, sterile 96-well plastic microtiter plates were filled with 180 μl of sterile deionized water, supplemented with 0.25% BSA. Subsequently, stock solutions (7.8× final test concentration) of compounds were added in 45 μl volumes in column 2 Serial five-fold dilutions (45 μl in […]) were made directly in the microtiter plates from column 2 to reach column 11. Untreated control samples with (column 1) and without (column 12) inoculum were included in each microtiter plate. Depending on the bacteria type, approximately 10 to 60 CFU per well of bacteria inoculum (100 TCID50), in a volume of 100 μl in 2.8× Mueller-Hinton broth medium, was added to the rows A to H, except column 12. The same volume of broth medium without inoculum was added to column 12 in row A to H. The cultures were incubated at 37° C. for 24 hours under a normal atmosphere (incubator with open air valve and continuous ventilation). At the end of incubation, one day after inoculation, the bacterial growth was quantitated fluorometrically. Therefore resazurin (0.6 mg/ml) was added in a volume of 20 μl to all wells 3 hours after inoculation, and the plates were re-incubated overnight. A change in colour from blue to pink indicated the growth of bacteria. The fluorescence was read in a computer-controlled fluorometer (Cytofluor Biosearch) at an excitation wavelength of 530 nm and an emission wavelength of 590 nm. The % growth inhibition achieved by the compounds was calculated according to standard methods.

[3] = system: Enterococcus faecalis (ATCC29212); assay: Microtitre plate assay, IC90 determination, EFA 29212; assay type: cell-based
Method: as §1, §2, §3

[4] = system: Staphylococcus aureus (ATCC25923); assay: Microtitre plate assay, IC90 determination, STA 25923; assay type: cell-based
Method: as §1, §2, §3

[5] = system: Streptococcus pneumoniae (ATCC6305); assay: Microtitre plate assay, IC90 determination, SPN 6305; assay type: cell-based; settings: 90% inhibitory concentration for bacterial growth, resazurin
Method: as §1, §2, §3

[6] = system: methicilline resistant Staphylococcus aureus (MRSA) (a clinical isolate from the University of Antwerp); assay: Microtitre plate assay, IC90 determination, STA RMETH; assay type: cell-based; settings: 90% inhibitory concentration for bacterial growth, resazurin; for IC90: Staphylococcus aureus, read-out: IC90 (μg/ml) STA RMETH
Method: as §1, §2, §3

[7] = system: Streptococcus pyogens (ATCC8668); assay: Microtitre plate assay, IC90 determination, SPY 8668; assay type: cell-based
Method: as §1, §2, §3

[8] = system: Pseudomonas aeruginosa (ATCC27853); assay: Microtitre plate assay, IC90 determination, PAE 27853; assay type: cell-based
Method: as §1, §2, §3

[9] = ATCC607, 90% inhibitory concentration for bacterial growth, 48 hours, Alamar Blue fluorescence, read-out: M. smegmatis IC90
[10] = Enterococcus faecalis ATCC29212, 90% inhibitory concentration for bacterial growth, resazurin, read-out: IC90 (μg/ml) EFA 29212
[11] = Staphylococcus aureus ATCC25923, 90% inhibitory concentration for bacterial growth, resazurin, read-out: IC90 (μg/ml) STA 25923
[12] = Streptococcus pneumoniae ATCC6305, read-out: IC90 (μg/ml) SPN 6305
[13] = Streptococcus pyogens ATCC8668, 90% inhibitory concentration for bacterial growth, resazurin, read-out: IC90 (μg/ml) SPY 8668
[14] = Pseudomonas aeruginosa ATCC27853, 90% inhibitory concentration for bacterial growth, resazurin, read-out: IC90 (μg/ml) PAE 27853
[15] = 90% inhibitory concentration for bacterial growth, 48 hours, Alamar Blue fluorescence
[16] = Enterococcus faecalis ATCC29212, 90% inhibitory concentration for bacterial growth, resazurin
[17] = Streptococcus pneumoniae ATCC6305
[18] = Streptococcus pyogens ATCC8668, 90% inhibitory concentration for bacterial growth, resazurin
[19] = Pseudomonas aeruginosa ATCC27853, 90% inhibitory concentration for bacterial growth, resazurin

Row | IC90 [2] [µg/mL] | IC90 [5, 12] [µg/mL] | SMILES | IC90 [1, 9] [µg/mL] | M. smegmatis IC90 [1, 15] [µg/mL] | IC90 (μg/ml) STA 29213 [2] [µg/mL] | IC90 (μg/ml) EFA 29212 [3, 16] [µg/mL] | IC90 (μg/ml) SPN 6305 [5, 17] [µg/mL] | IC90 (μg/ml) SPY 8668 [7, 18] [µg/mL] | IC90 (μg/ml) PAE 27853 [8, 19] [µg/mL] | further results
1 | 4.79 (≈ 8.91 µM) | 12 (≈ 22.4 µM) | COc1nc2ccc(Br)cc2cc1C(/C(=C/CN(C)C)c1cccc2ccccc12)c1ccccc1 (stereo not shown) [Compound 10] | 0.43 (≈ 0.8 µM) | – | – | – | – | – | – | IC90 [3, 10]: 5.38 µg/mL (≈ 10 µM); IC90 [4, 11]: 4.27 µg/mL (≈ 7.94 µM); IC90 [6]: 12 µg/mL (≈ 22.4 µM); IC90 [7, 13]: 9.56 µg/mL (≈ 17.8 µM); IC90 [8, 14]: 21.4 µg/mL (≈ 39.8 µM)
2 | – | – | COc1nc2ccc(Br)cc2cc1C(=C(CCN(C)C)c1ccccc1)c1ccccc1 [Compound 36] | – | 1.94 | 9.73 (≈ 20 µM) | 12.24 (≈ 25.1 µM) | 5.47 (≈ 11.2 µM) | 9.73 (≈ 20 µM) | 12.24 (≈ 25.1 µM) | IC90 (μg/ml) STA 25923 ([4]; Staphylococcus aureus ATCC25923, 90% inhibitory concentration for bacterial growth, resazurin): 10.91 µg/mL (≈ 22.4 µM); IC90 (μg/ml) STA RMETH [6]: 12.24 µg/mL (≈ 25.1 µM)
3 | 2.69 (≈ 5 µM) | 9.56 (≈ 17.8 µM) | COc1nc2ccc(Br)cc2cc1/C(=C(/CCN(C)C)c1cccc2ccccc12)c1ccccc1 [Compound 9] | 1.7 (≈ 3.16 µM) | – | – | – | – | – | – | IC90 [3, 10]: 10.7 µg/mL (≈ 19.9 µM); IC90 [4, 11]: 5.38 µg/mL (≈ 10 µM); IC90 [6]: 3.81 µg/mL (≈ 7.09 µM); IC90 [7, 13]: 10.7 µg/mL (≈ 19.9 µM); IC90 [8, 14]: 9.56 µg/mL (≈ 17.8 µM)
4 | – | – | COc1nc2ccc(Br)cc2cc1C(=C(CCN(C)C)c1cccc(F)c1)c1ccccc1 [Compound 38] | – | 8.01 | 10.08 (≈ 19.9 µM) | 8.01 (≈ 15.8 µM) | 8.01 (≈ 15.8 µM) | 3.58 (≈ 7.08 µM) | 8.99 (≈ 17.8 µM) | –
5 | – | – | COc1nc2ccc(C)cc2cc1C(C(=CCN(C)C)c1ccccc1)c1ccccc1 (racemic) [Compound 30] | – | 2.67 | 6.7 (≈ 15.9 µM) | 11.91 (≈ 28.2 µM) | 1.34 (≈ 3.17 µM) | 6.7 (≈ 15.9 µM) | 13.36 (≈ 31.6 µM) | –
6 | – | – | COc1nc2ccc(Br)cc2cc1C(/C(=C/CN(C)C)CCc1ccccc1)c1ccccc1 (stereo not shown) [Compound 13] | – | – | – | – | – | – | – | IC90 ([1]; ATCC607, 48 h, read-out: M. smegmatis IC90 (μg/ml), 90% inhibitory concentration for bacterial growth, Alamar Blue fluorescence): 1.73 µg/mL (≈ 3.36 µM); IC90 ([3]; Enterococcus faecalis, ATCC29212, read-out: IC90 (μg/ml) EFA 29212): 12.2 µg/mL (≈ 23.7 µM); IC90 ([4]; Staphylococcus aureus, ATCC25923, read-out: IC90 (μg/ml) STA 25923): 10.9 µg/mL (≈ 21.2 µM); IC90 ([5]; Streptococcus pneumoniae, ATCC6305, read-out: IC90 (μg/ml) SPN 6305, Streptococcus pneumoniae ATCC6305): 8.67 µg/mL (≈ 16.8 µM); IC90 ([7]; Streptococcus, ATCC8668, read-out: IC90 (μg/ml) SPY 8668): 9.73 µg/mL (≈ 18.9 µM); IC90 ([8]; Pseudomonas aeruginosa, ATCC27853, read-out: IC90 (μg/ml) PAE 27853): 12.2 µg/mL (≈ 23.7 µM)

Row | SMILES | IC90 [2] [µg/mL] | IC90 [5, 12] [µg/mL] | IC90 [1, 9] [µg/mL] | M. smegmatis IC90 [1, 15] [µg/mL] | IC90 (μg/ml) STA 29213 [2] [µg/mL] | IC90 (μg/ml) EFA 29212 [3, 16] [µg/mL] | IC90 (μg/ml) SPN 6305 [5, 17] [µg/mL] | IC90 (μg/ml) SPY 8668 [7, 18] [µg/mL] | IC90 (μg/ml) PAE 27853 [8, 19] [µg/mL] | further results
7 | COc1nc2ccc(Br)cc2cc1C(/C(=C/CN(C)C)CCc1ccccc1)c1ccccc1 (stereo not shown) [Compound 8] | 8.17 (≈ 15.8 µM) | 2.05 (≈ 3.98 µM) | 1.63 (≈ 3.16 µM) | – | – | – | – | – | – | melting point: 128 °C
